Test results as given in US10814002B2, “Patch and method for producing the same” (HISAMITSU PHARMACEUTICAL CO., INC., priority 2012, dated 2020).
Where a name gives a salt, the structure may show the parent alone.

Assay: Oral (sublingual) administration of 5 mg asenapine maleate to healthy adult men
Type: in vivo, human
Conditions: 5 mg asenapine maleate sublingual, healthy adult men (18)
Protocol: The N-desmethyl asenapine tends to cause adverse effects such as adverse effects on the cardiovascular system in comparison with asenapine. For example, in a case where 5 mg of asenapine maleate is orally administered (sublingual administration), the area under plasma concentration-time curve of the free asenapine for a period between 10 minutes and 72 hours (AUC0.17.72) can be 25,000 to 38,000 pg·hr/mL. In this case, N-desmethyl asenapine has an AUC0.17.72 of 10,000 to 17,000 pg·hr/mL, which is 40% or more of the […] of the free asenapine. In contrast, when approximately the same amount (4.8 mg) of asenapine is administrated using the patch of the present invention comprising the isopropyl palmitate in the adhesive agent layer, this makes it possible to sufficiently suppress the AUC of the asenapine metabolite while the free asenapine has an AUC equivalent to that in the case of the oral administration.
Furthermore, in a case where the patch obtained in Example 2 was administrated, the incidence proportion of adverse effects on the cardiovascular system in the AUC measurement test was 6%. […]

## CN1C[C@@H]2c3ccccc3Oc3ccc(Cl)cc3[C@H]2C1 (relative stereo) [asenapine maleate, trans-5-chloro-2-methyl-2,3,3a,12b-tetrahydro-1H-diben z[2,3:6,7]oxepino[4,5-c]pyrrole]
  incidence proportion of adverse effects on the cardiovascular system: 39%
plasma, 10 minutes to 72 hours
  AUC0.17.72 of the free asenapine (average value): 32,074 pg·hr/mL
